From PubChem BioAssay (NCI)
Where “and” joins values, the source holds several entries; their conditions need not be identical. Equal entries are not always repeated.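 Method: 48-hour compound exposure of cells in 96-well plates, five concentrations, linear interpolation of endpoints. Abbreviation: GI50, concentration required for 50% inhibition of growth. TGI denotes the concentration required for complete inhibition of growth.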

Legend:
Assay in all cases: inhibition of tumour cell growth, NCI panel, 48 h
[1] = tested on: UO-31 renal
[2] = tested on: HL-60(TB) leukemia
[3] = tested on: OVCAR-4 ovarian
[4] = tested on: UACC-62 melanoma
[5] = tested on: MALME-3M melanoma
[6] = tested on: CCRF-CEM leukemia
[7] = tested on: NCI-H460 lung
[8] = tested on: OVCAR-5 ovarian
[9] = tested on: LXFL 529 NSCLC
[10] = tested on: NCI-H522 lung
[11] = tested on: RXF 393 renal
[12] = tested on: U251 CNS
[13] = tested on: SW-620 colon
[14] = tested on: TK-10 renal
[15] = tested on: T-47D breast

SMILES | TGI [1] [µM] | TGI [2] [µM] | TGI [3] [µM] | TGI [4] [µM] | TGI [5] [µM] | TGI [6] [µM] | TGI [7] | TGI [8] [µM] | TGI [9] [µM] | TGI [10] | TGI [11] [µM] | TGI [12] [µM] | TGI [13] [µM] | TGI [14] [µM] | GI50 [11] [µM] | GI50 [4] | GI50 [5] | GI50 [13] [µM] | GI50 [14] [µM] | TGI [15] [µM]
CC[n+]1c(/C=C/c2cc(C(=O)OC)n3c2sc2ccccc23)sc2ccccc21 | 35.1 | 98.4 | 34.2 | 30.9 | 33 | 32.6 | 34.3 µM | 37.3 | 32.9 | 30.7 µM |  |  |  |  |  |  |  |  |  | 
COc1cc(C(C)c2cc3c(cc2OCCCCCOc2cc4c(cc2C(C)c2cc(OC)c(OC)c(OC)c2)OCO4)OCO3)cc(OC)c1OC (centres undefined) | > 100 | > 100 | > 100 | > 100 | > 100 | > 100 | > 100 µM | > 100 | > 100 | > 100 µM | > 100 | > 100 | > 100 |  |  |  |  |  |  | 
C=Cc1c(-c2ccccc2)cnc2[nH]c3ccccc3c12 | > 50 | > 50 | > 50 | > 50 | > 50 | > 50 | > 50 µM | > 50 | > 50 | > 50 µM | > 50 | > 50 | > 50 | > 50 |  |  |  |  |  | 
O=C(CC(=O)n1nc(-c2ccccc2)c(N=Nc2ccc([N+](=O)[O-])cc2)c1-c1ccccc1)Nc1ccc(Cl)cc1 | 45.1 | 70.4 | > 100 | > 100 | > 100 | 97 | > 100 µM | > 100 | > 100 | > 100 µM | 51.3 | 63.1 | > 100 | 69.1 |  |  |  |  |  | 
Cc1nsc2cc(Cl)n(C)c(=O)c12 | > 100 | > 100 | > 100 |  | > 100 | > 100 | > 100 µM | > 100 | > 100 | 69.3 µM | > 100 | > 100 | > 100 | > 100 |  |  |  |  |  | 
COc1cc(CNc2ccc(C)cc2)cc(OC)c1OC | > 100 |  | > 100 | > 100 | > 100 | > 83.6 | > 23.8 µM and 3.92 µM | > 100 | > 100 | 0.435 µM and 0.83 µM |  | 1.2 |  | > 100 | 0.239 | 0.12 µM and 0.57 µM | 0.276 µM and 0.658 µM | 0.203 | 4.28 | 
CC(=O)NC1=C(NCCO)C(=O)c2ccccc2C1=O | > 50 | > 50 | > 50 | > 50 | 46 | > 50 | > 50 µM |  | > 50 | > 50 µM | > 50 | > 50 | > 50 | > 50 |  |  |  |  |  | 
O=C(O)C(Cc1ccc(O)cc1)N=Cc1nc(-c2ccccc2)oc1O (centres undefined) | > 100 | > 100 | > 100 |  | > 100 | > 100 | > 100 µM | > 100 | > 100 | > 100 µM | > 100 | > 100 | > 100 | > 100 |  |  |  |  |  | 
Nc1ccc(C(=O)NN2C(=O)C(Cl)C2c2ccc(O)cc2)cc1 (centres undefined) | 57.9 | 33.7 | 41.4 | 29.1 | 32.9 | 33.8 | 54.8 µM | 46.6 | 31.7 | 24.4 µM |  | 29.6 | 44.7 | > 100 |  |  |  |  |  | 
CC(C)(C(=O)N(C(=O)N1CCN(c2ccccc2)CC1)S(=O)(=O)c1ccccc1)c1ccc(Cl)cc1 | 34.3 | > 100 | > 100 | > 100 | > 100 | > 100 | > 100 µM | > 100 |  | 26.3 µM | > 100 | > 100 | > 100 | > 100 |  |  |  |  |  | > 100
O=C1C[C@@H]2[C@@H](C=CC23CCCC3)N1O | > 100 | > 100 | > 100 | > 100 | > 100 | > 100 | > 100 µM | > 100 | > 100 | > 100 µM | > 100 | > 100 | > 100 | > 100 |  |  |  |  |  | 
CCCCCCCCCCCCCCCCNc1nc(=O)n(C2CC(O)C(COP(=O)(O)OC3CC(n4cc(F)c(=O)[nH]c4=O)OC3CO)O2)cc1F (centres undefined) | > 46.8 | 19 | > 100 | 17.3 | > 72.1 | 17.6 | 22.6 µM | > 100 |  | 55.4 µM | 30.3 | 32 | > 100 | > 100 |  |  |  |  |  | > 100
COc1cc(Br)c(/C=N/N=C(\N)NO)cc1OC | > 100 | 52.6 | > 100 | 32.3 | 60.2 | > 100 | 27.2 µM | > 100 | > 100 | 37.5 µM | 54.4 | > 100 | > 100 | > 100 |  |  |  |  |  | 
COC(=O)c1ccc(C)cc1C1CN=NC12Cc1c(C)cccc1C2=O (centres undefined) | > 100 | 71.1 | > 93.9 | > 68.7 | > 90.3 | > 100 | > 100 µM | > 100 |  | 97.4 µM | > 100 | > 100 | > 100 | > 100 |  |  |  |  |  | 81.7
COc1cc2c(c(OC)c1OC)[C@@H]1CCCCC[C@@H]1CCC2=O | > 100 | > 63.4 | > 100 | > 100 | > 100 | > 77.8 | > 100 µM | > 100 | > 100 | > 100 µM | > 100 | > 100 | > 100 | > 100 |  |  |  |  |  | 
CC1CCC2C(C(=O)O[C@H]3C4C=CO[C@@H](OC5OC(CO)C(O)C(O)C5O)C4[C@@]4(CO)O[C@@H]34)=CO[C@@H](OC3OC(CO)C(O)C(O)C3O)C12 (some centres undefined) | > 10 | > 10 | > 10 | > 10 | > 10 | > 10 | > 10 µM | > 10 |  | > 10 µM | > 10 | > 10 | > 10 | > 10 |  |  |  |  |  | > 10
O=C1NCC2(CCN(CC3COc4ccccc4O3)CC2)N1c1ccccc1 (centres undefined) | > 100 | > 100 | > 100 | > 100 | > 100 | > 100 | > 100 µM | > 100 |  | > 100 µM | > 100 | > 100 | > 100 | > 100 |  |  |  |  |  | > 100
NC(N)=N/N=C/c1c(Cl)nc2n1CCS2 | > 100 | > 100 | > 100 | > 100 | > 100 | > 100 | > 100 µM | > 100 |  | > 100 µM | > 100 | > 100 | > 100 | > 100 |  |  |  |  |  | > 100
O=C(NC1C(=O)NC(CCc2ccccc2)NC1=O)OCc1ccccc1 (centres undefined) | > 100 | > 100 | > 100 | > 100 | > 100 | > 100 | > 100 µM | > 100 |  | > 100 µM | > 100 | > 100 | > 100 | > 100 |  |  |  |  |  | > 100
